Laboratory results as given in US12304900B2, “Islet cell manufacturing compositions and methods of use” (Vertex Pharmaceuticals Incorporated, priority 2017, dated 2025).

Test system: PGT cells (Stage 2 cells)
Assay: Flow cytometry of cell constituent at Stage 4-complete after signaling factors at Stage 3
Assay type: cell-based
Source text: In the meantime, LDN193189 also promoted chromogranin A (CHGA) expression in Stage 4-complete cells.

[1] = Stage 4-complete, 0.5 μM DMH-1 alone vs no DMH-1, FIG. 6B

| Compound | percentage of cells expressing CDX2 [1] | percentage of cells expressing CHGA [1] | chromogranin A (CHGA) expression (Stage 4-complete cells, LDN193189 at Stage 3, FIG. 6A) | percentage of CDX2-positive cells (Stage 4-complete, LDN193189 at Stage 3 vs absence, FIG. 6A) |
| --- | --- | --- | --- | --- |
| CC(C)Oc1ccc(-c2cnc3c(-c4ccnc5ccccc45)cnn3c2)cc1 [DMH-1] | reduced | increased | – | – |
| c1ccc2c(-c3cnn4cc(-c5ccc(N6CCNCC6)cc5)cnc34)ccnc2c1 [LDN193189, 4-[6-(4-piperazin-1-ylphenyl)pyrazolo[1,5-a]pyrimidin-β-yl]quinolone] | – | – | promoted | clearly reduced |
